Experimental data as given in ChEMBL document CHEMBL3885881, “DrugMatrix”.

Organism: Rattus norvegicus
Experiment: DrugMatrix - Regimen: Daily Repeat
Type: toxicity, organism-based, Sprague-Dawley
Parameters: regimen Daily Repeat, gender Male, age 6-8 weeks
Settings: in vivo, iv, vehicle 100 % SALINE; for URIC ACID / ALANINE AMINOTRANSFERASE / ALBUMIN / ALKALINE PHOSPHATASE / ASPARTATE AMINOTRANSFERASE / BLOOD UREA NITROGEN / CARBON DIOXIDE / CHLORIDE / CHOLESTEROL / CREATINE PHOSPHOKINASE / CREATININE / GLUCOSE / LIPASE / PHOSPHORUS / POTASSIUM / SODIUM / TOTAL BILIRUBIN / TOTAL PROTEIN: tissue Plasma; for ABSOLUTE BASOPHIL / ABSOLUTE EOSINOPHIL / ABSOLUTE LYMPHOCYTE / ABSOLUTE MONOCYTE / ABSOLUTE SEGMENTED NEUTROPHIL / BASOPHIL / EOSINOPHIL / ERYTHROCYTE COUNT / HEMATOCRIT / HEMOGLOBIN / LYMPHOCYTE / MEAN CORPUSCULAR HEMOGLOBIN / MEAN CORPUSCULAR HEMOGLOBIN CONCENTRATION / MONOCYTE / NEUTROPHIL / NUCLEATED RED BLOOD CELLS / PLATELET COUNT: tissue Blood
[1] = 5 mg/kg, 120 h, dose level High, time 5 day
[2] = […], 72 h, dose 1.5 mg/Kg, dose level Low, time 3 day
[3] = […], 120 h, dose 1.5 mg/Kg, dose level Low, time 5 day

CCc1c2c(nc3ccc(OC(=O)N4CCC(N5CCCCC5)CC4)cc13)-c1cc3c(c(=O)n1C2)COC(=O)[C@]3(O)CC [IRINOTECAN]
URIC ACID (5 mg/kg, 72 h, dose level High, time 3 day): 1.77 mg/dL
ABSOLUTE BASOPHIL [1]: 0 CELLS/uL
ABSOLUTE EOSINOPHIL [1]: 0 CELLS/uL
ABSOLUTE LYMPHOCYTE [1]: 10356 CELLS/uL
ABSOLUTE MONOCYTE [1]: 74 CELLS/uL
ABSOLUTE SEGMENTED NEUTROPHIL [1]: 470 CELLS/uL
BASOPHIL [1]: 0%
EOSINOPHIL [1]: 0%
ERYTHROCYTE COUNT [1]: 6.32 x10E6/uL
HEMATOCRIT [1]: 37.73%
HEMOGLOBIN [1]: 15.1 G/DL
LYMPHOCYTE [1]: 95%
MEAN CORPUSCULAR HEMOGLOBIN [1]: 23.93 pg
MEAN CORPUSCULAR HEMOGLOBIN CONCENTRATION [1]: 40.07 G/DL
MONOCYTE [1]: 0.67%
NEUTROPHIL [1]: 4.33%
NUCLEATED RED BLOOD CELLS [1]: 0 /100WBC
PLATELET COUNT [1]: 1232.33 x10E3/uL
ALANINE AMINOTRANSFERASE [1]: 38 u/L
ALBUMIN [1]: 4.37 G/DL
ALKALINE PHOSPHATASE [1]: 299.33 u/L
ASPARTATE AMINOTRANSFERASE [1]: 100.33 u/L
BLOOD UREA NITROGEN [1]: 21.33 mg/dL
CARBON DIOXIDE [1]: 22.67 mmol/L
CHLORIDE [1]: 100 MEQ/L
CHOLESTEROL [1]: 65 mg/dL
CREATINE PHOSPHOKINASE [1]: 991 u/L
CREATININE [1]: 0.24 mg/dL
GLUCOSE [1]: 171.67 mg/dL
LIPASE [1]: 9.33 u/L
PHOSPHORUS [1]: 12.93 mg/dL
POTASSIUM [1]: 6.75 MEQ/L
SODIUM [1]: 142.97 MEQ/L
TOTAL BILIRUBIN [1]: 0.13 mg/dL
TOTAL PROTEIN [1]: 6.67 G/DL
URIC ACID [1]: 2.8 mg/dL
ABSOLUTE BASOPHIL [2]: 0 CELLS/uL
ABSOLUTE EOSINOPHIL [2]: 215 CELLS/uL
ABSOLUTE LYMPHOCYTE [2]: 8779 CELLS/uL
ABSOLUTE MONOCYTE [2]: 139.33 CELLS/uL
ABSOLUTE SEGMENTED NEUTROPHIL [2]: 933.33 CELLS/uL
BASOPHIL [2]: 0%
EOSINOPHIL [2]: 2%
ERYTHROCYTE COUNT [2]: 5.76 x10E6/uL
HEMATOCRIT [2]: 36.73%
HEMOGLOBIN [2]: 14.23 G/DL
LYMPHOCYTE [2]: 87.33%
MEAN CORPUSCULAR HEMOGLOBIN [2]: 24.73 pg
MEAN CORPUSCULAR HEMOGLOBIN CONCENTRATION [2]: 38.77 G/DL
MONOCYTE [2]: 1.33%
NEUTROPHIL [2]: 9.33%
NUCLEATED RED BLOOD CELLS [2]: 0 /100WBC
PLATELET COUNT [2]: 1185.67 x10E3/uL
ALANINE AMINOTRANSFERASE [2]: 45.33 u/L
ALBUMIN [2]: 4.23 G/DL
ALKALINE PHOSPHATASE [2]: 367.67 u/L
ASPARTATE AMINOTRANSFERASE [2]: 79.33 u/L
BLOOD UREA NITROGEN [2]: 14.67 mg/dL
CARBON DIOXIDE [2]: 27 mmol/L
CHLORIDE [2]: 99 MEQ/L
CHOLESTEROL [2]: 76.33 mg/dL
CREATINE PHOSPHOKINASE [2]: 268.33 u/L
CREATININE [2]: 0.18 mg/dL
GLUCOSE [2]: 157 mg/dL
LIPASE [2]: 9.67 u/L
PHOSPHORUS [2]: 15.07 mg/dL
POTASSIUM [2]: 6.67 MEQ/L
SODIUM [2]: 143.87 MEQ/L
TOTAL BILIRUBIN [2]: 0.17 mg/dL
URIC ACID [2]: 1.7 mg/dL
ABSOLUTE BASOPHIL [3]: 0 CELLS/uL
ABSOLUTE EOSINOPHIL [3]: 58.33 CELLS/uL
ABSOLUTE LYMPHOCYTE [3]: 15491.67 CELLS/uL
ABSOLUTE MONOCYTE [3]: 116.67 CELLS/uL
ABSOLUTE SEGMENTED NEUTROPHIL [3]: 2000 CELLS/uL
BASOPHIL [3]: 0%
EOSINOPHIL [3]: 0.33%
HEMATOCRIT [3]: 36.13%
HEMOGLOBIN [3]: 14.3 G/DL
LYMPHOCYTE [3]: 87.67%
MEAN CORPUSCULAR HEMOGLOBIN [3]: 24 pg
MEAN CORPUSCULAR HEMOGLOBIN CONCENTRATION [3]: 39.57 G/DL
MONOCYTE [3]: 0.67%
NEUTROPHIL [3]: 11.33%
NUCLEATED RED BLOOD CELLS [3]: 0 /100WBC
PLATELET COUNT [3]: 1288 x10E3/uL
ALANINE AMINOTRANSFERASE [3]: 54 u/L
ALBUMIN [3]: 4.03 G/DL
ALKALINE PHOSPHATASE [3]: 415.33 u/L
ASPARTATE AMINOTRANSFERASE [3]: 101 u/L
BLOOD UREA NITROGEN [3]: 15.67 mg/dL
CARBON DIOXIDE [3]: 26 mmol/L
CHLORIDE [3]: 101.33 MEQ/L
CHOLESTEROL [3]: 68.67 mg/dL
CREATINE PHOSPHOKINASE [3]: 578.67 u/L
CREATININE [3]: 0.21 mg/dL
GLUCOSE [3]: 151 mg/dL
LIPASE [3]: 9.67 u/L
PHOSPHORUS [3]: 13.47 mg/dL
POTASSIUM [3]: 6.54 MEQ/L
SODIUM [3]: 146.17 MEQ/L
TOTAL BILIRUBIN [3]: 0.13 mg/dL
TOTAL PROTEIN [3]: 5.93 G/DL
URIC ACID [3]: 1.8 mg/dL
